pEC50: −log10 of the molar value.
How the values were obtained:
[1] = tested on: differentiated SH-SY5Y cells; assay: Neutral red uptake cytotoxicity assay, differentiated SH-SY5Y; assay type: cell-based; details: 24 h; for Top (maximal effect): maximum cell death of fitted curve; for pEC50: Homo sapiens, cell death curves 0–1500 µM, read-out: EC50 (half-maximum-effect concentration)
Procedure: SH-SY5Y cells were acquired from the American Type Culture Collection (Manassas, VA, USA). Cells were cultured in 25 cm^2 flasks using DMEM—high glucose supplemented with 10% heat-inactivated FBS, 1% MEM non-essential amino acids and 1% penicillin/streptomycin mixture, and maintained in a 5% CO2–95% air atmosphere, at 37 °C, until 80% confluence. Cells were routinely subcultured using trypsin-EDTA and, to avoid phenotypic alterations, were always used between passages 23 and 29. In all experiments, the cells were seeded at a density of 25,000 cells/cm^2. As previously described, to achieve a dopaminergic neuronal phenotype, the cells were seeded in a complete DMEM medium containing 10 μM retinoic acid and, after 3 days, 80 nM TPA was added to the cultures for another 3 days.
(§1) Neutral red uptake and resazurin reduction assays were performed after exposure of differentiated SH-SY5Y and HepG2 cells to the drugs under study. To obtain a concentration–response curve, a broad concentration range (0–2000 µM) was investigated, and cytotoxicity was evaluated 24 h after exposure in 96-well cell culture plates. As previously described, neutral red uptake assay is based on the incorporation of neutral red dye into the lysosomes of viable cells and the amount of dye incorporated represents the cells’ lysosomal functionality, and resazurin reduction assay is based on the irreversible reduction of resazurin dye to the fluorescent resorufin product by metabolically active cells.
(§2) Briefly, 24 h after being exposed to different concentrations of the compounds, differentiated SH-SY5Y cells were incubated with either neutral red (50 µg/mL) or resazurin (10 µg/mL) solutions for 90 min, at 37 °C, in a 5% CO2–95% air atmosphere. For HepG2 cells, 24 h after the exposure to the tested drugs, the cells were incubated with either neutral red (50 µg/mL) or resazurin (10 µg/mL) solutions for 45 and 60 min, respectively, at 37 °C, in a 5% CO2–95% air atmosphere.
(§3) In the neutral red uptake assay, at the end of the incubation period, the cell culture medium was removed and a solution of absolute ethyl alcohol/distilled water (1:1) with 5% acetic acid was added to extract the dye absorbed only by the viable cells. The absorbance was measured at 540 nm in a multi-well plate reader (PowerWaveX BioTek Instruments, Winooski, VT, USA). In the resazurin assay, at the end of the incubation period, the fluorescence was measured at 530 nm excitation and 590 nm emission wavelengths in a multi-well plate reader (PowerWaveX BioTek Instruments, Winooski, VT, USA).
(§4) The results were expressed as a percentage of control cells. At least four independent experiments were performed, in triplicate. For differentiated SH-SY5Y cells, the neutral red uptake assay was identified as the most sensitive assay and, therefore, used for the subsequent experiments. On the other hand, for HepG2 cells, the resazurin reduction assay was identified as the most sensitive assay and, therefore, used for the subsequent experiments.

HepG2 cells = assay: Resazurin reduction cytotoxicity assay, HepG2; assay type: cell-based; details: HepG2, 24 h; for Top (maximal effect): maximum cell death of fitted curve; for pEC50: Homo sapiens, cell death curves 0–2000 µM, read-out: EC50 (half-maximum-effect concentrations)
Procedure: HepG2 cells were acquired from the American Type Culture Collection (Manassas, VA, USA). Cells were cultured in 75 cm^2 flasks using DMEM—high glucose supplemented with a 10% heat inactivated FBS and 1% penicillin/streptomycin mixture, and maintained in a 5% CO2–95% air atmosphere, at 37 °C, until 80% confluence. Cells were routinely subcultured using trypsin-EDTA and, to avoid phenotypic alterations, used between passages 16 and 22. In all experiments, the cells were seeded at a density of 250,000 cells/cm^2 and used 24 h after seeding.
as §1, §2, §3, §4

[2] = tested on: differentiated SH-SY5Y cells; assay: Effect of CYP inhibitors on drug cytotoxicity (neutral red uptake), differentiated SH-SY5Y; assay type: cell-based; details: 24 h, drug concentrations as given in the source; for change of neutral red uptake with ketoconazole vs drug alone: 10 μM ketoconazole (CYP3A4 inhibitor); for change of neutral red uptake with quinidine vs drug alone: 10 μM quinidine (CYP2D6 inhibitor); for change of neutral red uptake with ABT vs drug alone: 1000 μM ABT (non-selective CYP inhibitor)
Procedure: Differentiated SH-SY5Y cells were incubated with the drugs in the presence or absence of different CYP inhibitors: 1000 μM ABT, a non-selective CYP inhibitor, 10 μM quinidine, a specific CYP2D6 inhibitor, or 10 μM ketoconazole, a specific CYP3A4 inhibitor.
CYP inhibition assay was used to evaluate the drugs’ potential to inhibit drug-metabolizing enzymes. Accordingly, SH-SY5Y and HepG2 cells were seeded in 96-well cell culture plates and pre-incubated with 1000 µM ABT—a non-isoform specific CYP450 inhibitor, 10 µM quinidine—a CYP2D6 inhibitor or 1 µM ketoconazole—a CYP3A4 inhibitor. After 1 h, the drugs (0–500 µM) were co-incubated with the inhibitors for 24 h, at 37 °C, in a 5% CO2–95% air atmosphere. The drugs’ cytotoxicity was then assessed through the neutral red uptake assay for differentiated SH-SY5Y cells, and through the resazurin reduction assay for HepG2 cells, and the results were expressed as percentage of control cells. At least four independent experiments were performed, in triplicate.

hMAO-A = molecular target: T1, hMAO-A (Homo sapiens, UniProt P21397); assay: hMAO-A inhibitory activity assay (kynuramine); assay type: biochemical; details: read-out: % inhibition at 10 µM hMAO-A, kynuramine substrate
T1 construct: purchased Sigma Aldrich; host or cells: insect cells (BTI-TN-5B1-4), recombinant baculovirus
T1 sequence (P21397 1-527): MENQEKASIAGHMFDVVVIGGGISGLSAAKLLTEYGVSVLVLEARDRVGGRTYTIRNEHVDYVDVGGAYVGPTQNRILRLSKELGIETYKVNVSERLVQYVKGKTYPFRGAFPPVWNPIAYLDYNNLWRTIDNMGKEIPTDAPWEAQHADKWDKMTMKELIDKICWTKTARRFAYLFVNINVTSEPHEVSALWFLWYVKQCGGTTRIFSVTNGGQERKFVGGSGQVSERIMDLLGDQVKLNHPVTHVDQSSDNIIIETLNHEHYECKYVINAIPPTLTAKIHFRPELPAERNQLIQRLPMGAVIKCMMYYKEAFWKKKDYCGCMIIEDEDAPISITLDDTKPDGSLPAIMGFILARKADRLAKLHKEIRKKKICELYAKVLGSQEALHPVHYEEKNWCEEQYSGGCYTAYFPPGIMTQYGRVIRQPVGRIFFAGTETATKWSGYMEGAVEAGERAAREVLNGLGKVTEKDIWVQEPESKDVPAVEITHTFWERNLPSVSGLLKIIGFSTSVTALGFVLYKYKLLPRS
Procedure: The hMAO inhibitory activities were assessed in microsomal MAO isoforms, prepared from insect cells (BTI-TN-5B1-4) infected with recombinant baculovirus containing cDNA inserts for hMAO-A or hMAO-B, by measuring the enzymatic conversion rates of kynuramine into 4-hydroxyquinoline. […] All assays were performed in sodium phosphate buffer solution 50 mM pH 7.4.
The percentages of MAO inhibition of each compound were determined from three independent experiments performed in triplicate.

[3] = Chromatographic Hydrophobicity Index (CHI) by HPLC, CHILogD7.4; details: pH 7.4
Procedure: The CHI values at pH 7.4 were determined using an experimental protocol described elsewhere [23, 25]. The CHI values were assessed from experimental retention times (tR) of the compounds under study and a mixture of reference compounds obtained on the HPLC system with a Luna C18 (2) column (150 × 4.6 mm, 5 µm, Phenomenex, CA, USA). […] Mobile phase A was 10 mM ammonium acetate (pH 7.4) and mobile phase B was acetonitrile. The following gradient program was applied: 0–7 min 0–100% B, 7–15 min 100% B, 15–17 min 100–0% B. The flow was 1 mL/min, and the injection volume was 40 μL.

Compound	Bottom (baseline) [1]	Hill Slope [1]	Top (maximal effect) [1]	pEC50 [1]	Bottom (baseline) (HepG2 cells)	Hill Slope (HepG2 cells)	Top (maximal effect) (HepG2 cells)	pEC50 (HepG2 cells)	change of neutral red uptake with ketoconazole vs drug alone [2]	change of neutral red uptake with quinidine vs drug alone [2]	inhibition at 10 µM (hMAO-A) [%]	chromatographic logD [3]	change of neutral red uptake with ABT vs drug alone [2]	cytotoxicity (in words) (HepG2 cells; 0–2000 µM)
COc1cc(CCN)c(OC)cc1Br [2C-B, 4-Bromo-2,5-dimethoxy-β-phenethylamine]	1.900	1.746	93.68	3.78	1.072	3.731	89.29	3.69	small but significant decrease in neutral red uptake	significant decrease in the neutral red uptake	17.5	0.7		
COc1cc([N+](=O)[O-])c(OC)cc1CCN [2C-N, 2,5-dimethoxy-4-nitrophenethylamine]	6.911	2.691	≈100	3.14	0.2545	2.334	≈100	3.08		significant decrease in the neutral red uptake	5.8	0.37	significant increase in neutral red uptake	
COc1cc(CCNCc2ccccc2OC)c(OC)cc1Br [25B-NBOMe, 4-Bromo-2,5-dimethoxy-N-(2-methoxybenzyl)-β-phenethylamine]	0.0825	2.687	87.85	4.47	4.552	3.079	89.49	4.48		significant decrease in the neutral red uptake	15	2.32		
COc1cc([N+](=O)[O-])c(OC)cc1CCNCc1ccccc1OC [25N-NBOMe, 4-Nitro-2-dimethoxy-N-(2-methoxybenzyl)-β-phenethylamine]	2.841	5.758	87.38	3.90	3.464	5.089	87.26	4.00	small but significant decrease in neutral red uptake	significant decrease in the neutral red uptake	8.9	1.96	significant decrease in neutral red uptake	
COc1cc(CCN)cc(OC)c1OC.Cl [Mescaline, 3,4,5-Trimethoxyphenethylamine hydrochloride]									small but significant decrease in neutral red uptake	significant decrease in the neutral red uptake	2.5			not causing a significant cytotoxicity
COc1ccccc1CNCCc1cc(OC)c(OC)c(OC)c1 [Mescaline-NBOMe, 3,4,5-Trimethoxy-N-(2-methoxybenzyl)-β-phenethylamine]	1.218	2.681	98.57	3.39	−0.3754	3.411	87.43	3.37	small but significant decrease in neutral red uptake	significant decrease in the neutral red uptake	3.9	1.34	significant decrease in neutral red uptake	
